Values joined by “and” are separate entries in the source; they are usually repeats but may differ in a detail not shown here. Equal entries are not always repeated. “Also recorded” adds a separate entry of the source. Where two headings read alike, the source gives them in different places.
What was measured:
Kir6.2/SUR1 [1] = biological target: T1, Kir6.2/SUR1 (Homo sapiens, UniProt Q09428); assay: Thallium flux activation dose-response without channel pre-activation; format: cell-based; conditions: no channel pre-activation; doses up to 30 µM
T1 sequence (Q09428 whole entry, species assumed): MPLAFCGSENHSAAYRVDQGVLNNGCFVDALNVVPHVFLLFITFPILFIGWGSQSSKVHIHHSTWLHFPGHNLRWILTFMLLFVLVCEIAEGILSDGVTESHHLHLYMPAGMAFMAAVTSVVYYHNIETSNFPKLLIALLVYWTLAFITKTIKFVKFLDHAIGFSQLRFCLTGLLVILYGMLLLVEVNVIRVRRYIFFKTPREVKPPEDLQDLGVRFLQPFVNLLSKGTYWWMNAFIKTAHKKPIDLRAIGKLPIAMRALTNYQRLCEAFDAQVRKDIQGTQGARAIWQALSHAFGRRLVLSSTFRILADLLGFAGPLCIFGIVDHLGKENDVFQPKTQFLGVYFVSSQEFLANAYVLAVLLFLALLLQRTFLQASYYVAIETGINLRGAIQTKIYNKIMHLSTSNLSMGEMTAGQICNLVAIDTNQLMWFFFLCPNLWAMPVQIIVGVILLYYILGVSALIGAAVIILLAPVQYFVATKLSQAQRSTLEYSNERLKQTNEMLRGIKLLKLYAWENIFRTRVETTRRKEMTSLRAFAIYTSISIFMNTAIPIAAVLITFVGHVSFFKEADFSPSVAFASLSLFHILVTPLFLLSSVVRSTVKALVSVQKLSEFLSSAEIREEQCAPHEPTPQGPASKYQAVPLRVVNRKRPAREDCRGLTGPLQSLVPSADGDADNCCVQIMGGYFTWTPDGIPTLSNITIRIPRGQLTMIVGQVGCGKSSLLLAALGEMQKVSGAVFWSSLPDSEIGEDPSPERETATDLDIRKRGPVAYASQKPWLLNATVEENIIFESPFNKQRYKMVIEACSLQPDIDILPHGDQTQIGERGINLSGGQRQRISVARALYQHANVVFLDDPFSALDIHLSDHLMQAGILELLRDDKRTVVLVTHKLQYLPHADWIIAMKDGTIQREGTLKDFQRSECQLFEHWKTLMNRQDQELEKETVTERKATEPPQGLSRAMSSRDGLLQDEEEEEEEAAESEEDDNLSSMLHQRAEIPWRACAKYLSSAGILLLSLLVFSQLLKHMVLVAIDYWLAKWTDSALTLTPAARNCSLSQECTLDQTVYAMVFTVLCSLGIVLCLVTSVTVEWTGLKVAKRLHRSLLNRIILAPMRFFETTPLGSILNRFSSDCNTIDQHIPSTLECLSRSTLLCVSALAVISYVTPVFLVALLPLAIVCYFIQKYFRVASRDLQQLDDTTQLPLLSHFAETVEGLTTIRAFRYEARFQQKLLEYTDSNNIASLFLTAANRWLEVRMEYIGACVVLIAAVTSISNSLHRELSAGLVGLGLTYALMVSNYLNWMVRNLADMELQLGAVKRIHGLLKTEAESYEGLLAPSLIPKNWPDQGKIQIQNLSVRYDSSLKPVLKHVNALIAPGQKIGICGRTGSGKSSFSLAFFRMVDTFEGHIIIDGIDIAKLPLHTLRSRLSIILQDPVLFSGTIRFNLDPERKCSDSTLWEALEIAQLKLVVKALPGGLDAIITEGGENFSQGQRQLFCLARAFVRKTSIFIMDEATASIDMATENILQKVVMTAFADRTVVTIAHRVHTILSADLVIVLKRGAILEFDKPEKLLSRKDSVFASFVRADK
T1 sequence (Q14654 whole entry partner, species assumed): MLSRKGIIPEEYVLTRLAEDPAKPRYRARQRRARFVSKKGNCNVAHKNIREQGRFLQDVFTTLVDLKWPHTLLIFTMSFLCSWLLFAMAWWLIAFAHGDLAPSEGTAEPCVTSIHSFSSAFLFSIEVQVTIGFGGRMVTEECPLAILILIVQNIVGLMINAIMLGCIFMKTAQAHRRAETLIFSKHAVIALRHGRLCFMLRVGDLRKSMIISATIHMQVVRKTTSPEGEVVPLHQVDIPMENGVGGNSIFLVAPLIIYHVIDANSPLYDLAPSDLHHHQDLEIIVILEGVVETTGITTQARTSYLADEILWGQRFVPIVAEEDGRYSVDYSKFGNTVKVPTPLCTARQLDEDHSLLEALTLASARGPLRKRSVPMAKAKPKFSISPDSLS
Procedure: (§1) Thallium flux assays were conducted using the established methods. Stably transfected T-REx-HEK-293 cells expressing Kir6.2/SUR1 or Kir6.1/SUR2B were cultured overnight in polyamine-coated plates (black-walled, clear-bottomed; BD, Bedford, MA) at a density of 20,000 cells in 20 µl per well of cell culture media. The expression of Kir6.2/SUR1 or Kir6.1/SUR2B channels was induced by treating cells with 1 µg/ml tetracycline overnight. The following day, cells were rinsed with an assay buffer (Hanks’ Balanced Salt Solution supplied with 20 mM HEPES), loaded with the thallium-sensor dye Brilliant Thallos-AM AM (Ion Bioscience, San Marcos, TX) for 1 h, and then washed again with assay buffer to remove unincorporated dye. The cell plate was subsequently placed in a Panoptic Kinetic Imaging Plate Reader (Wavefront Bioscience, Franklin, TN) and imaged at a frequency of 1 Hz using 482/35 nm (excitation) and 536/40 nm (emission) filter sets. Kir6.1/SUR2B channels were activated with 10 µM pinacidil, whereas Kir6.1/SUR1 was activated with 30 µM VU0071063 [34]. To activate KATP channels independent of activators with ATP-depletion method, cells were treated with a cocktail of metabolic inhibitors (2.5 mM sodium cyanide and 20 mM 2-deoxy glucose) for 25 min before imagine. Control and test compounds diluted freshly from DMSO stocks into assay buffer were added to wells for four minutes before adding 0.5 mM chloride-free thallium stimulus buffer (Ion Bioscience) to initiate thallium flux through the expressed KATP channels. Thallium flux was recorded from all 384-wells for 2 min before terminating the experiment. […] Selectivity assays against other Kir channels were performed as described previously.
(§2) We therefore systematically explored this possibility in dose–response experiments against Kir6.2/SUR1 in the absence of channel pre-activation. Kir6.1/SUR2B was also evaluated for comparison.
(§3) Figure 6. Paradoxical activation of Kir6.2/SUR1. […] Fluorescence intensity at each dose was normalized to that in the absence of drug. […] (b) Activities of indicated compounds at 30 μM toward Kir6.1/SUR2B normalized to that of 30 μM pinacidil. […] (d) Activities of indicated compounds at 30 μM toward Kir6.2/SUR1 normalized to that of 30 μM VU0071063.

Kir6.1/SUR2B [2] = biological target: T2, Kir6.1/SUR2B (Homo sapiens, UniProt O60706); assay: as above; format: cell-based; conditions: no channel pre-activation; doses up to 30 µM
T2 construct: expressed in transfected cells; Kir6.1 tetracycline-inducible, SUR2B constitutive
T2 sequence (O60706 1-1549 isoform O60706-2, species assumed): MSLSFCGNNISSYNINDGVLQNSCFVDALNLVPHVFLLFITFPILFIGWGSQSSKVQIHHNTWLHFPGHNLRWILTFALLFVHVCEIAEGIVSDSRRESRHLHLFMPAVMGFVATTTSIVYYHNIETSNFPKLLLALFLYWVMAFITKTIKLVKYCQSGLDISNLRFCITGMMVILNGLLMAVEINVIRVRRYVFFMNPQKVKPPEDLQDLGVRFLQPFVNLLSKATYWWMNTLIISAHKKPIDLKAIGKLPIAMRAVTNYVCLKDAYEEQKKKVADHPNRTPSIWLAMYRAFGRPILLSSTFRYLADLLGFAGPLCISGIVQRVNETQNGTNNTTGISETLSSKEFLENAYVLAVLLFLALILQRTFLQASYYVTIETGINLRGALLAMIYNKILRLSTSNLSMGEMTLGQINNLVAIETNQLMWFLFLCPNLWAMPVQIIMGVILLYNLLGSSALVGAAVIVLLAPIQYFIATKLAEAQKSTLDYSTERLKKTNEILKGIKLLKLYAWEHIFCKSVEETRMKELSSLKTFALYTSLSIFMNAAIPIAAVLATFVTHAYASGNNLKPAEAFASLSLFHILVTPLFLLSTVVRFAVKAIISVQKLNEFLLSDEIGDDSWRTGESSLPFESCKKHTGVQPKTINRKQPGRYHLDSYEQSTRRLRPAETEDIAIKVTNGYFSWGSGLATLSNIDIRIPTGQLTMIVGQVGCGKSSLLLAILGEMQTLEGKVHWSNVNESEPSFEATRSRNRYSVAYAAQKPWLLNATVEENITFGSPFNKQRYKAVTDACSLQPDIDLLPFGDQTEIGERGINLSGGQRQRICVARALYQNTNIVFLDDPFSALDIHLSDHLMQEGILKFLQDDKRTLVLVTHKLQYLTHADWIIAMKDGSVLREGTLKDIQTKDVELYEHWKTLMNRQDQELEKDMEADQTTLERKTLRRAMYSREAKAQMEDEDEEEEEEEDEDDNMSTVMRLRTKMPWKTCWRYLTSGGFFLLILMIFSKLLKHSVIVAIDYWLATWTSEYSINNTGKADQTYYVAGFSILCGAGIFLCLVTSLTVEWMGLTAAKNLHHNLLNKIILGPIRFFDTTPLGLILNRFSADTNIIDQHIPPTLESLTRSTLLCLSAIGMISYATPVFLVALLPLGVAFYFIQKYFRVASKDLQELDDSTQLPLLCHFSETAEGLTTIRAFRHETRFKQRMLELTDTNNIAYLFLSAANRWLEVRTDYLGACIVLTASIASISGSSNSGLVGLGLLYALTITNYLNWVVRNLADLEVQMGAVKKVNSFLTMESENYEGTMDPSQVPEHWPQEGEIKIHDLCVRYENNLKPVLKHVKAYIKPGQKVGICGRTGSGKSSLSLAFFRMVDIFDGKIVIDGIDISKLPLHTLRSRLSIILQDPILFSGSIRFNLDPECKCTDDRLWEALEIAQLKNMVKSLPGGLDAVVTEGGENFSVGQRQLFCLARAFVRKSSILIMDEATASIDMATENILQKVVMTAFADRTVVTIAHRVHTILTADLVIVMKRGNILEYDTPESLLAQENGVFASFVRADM
T2 sequence (Q15842 whole entry partner, species assumed): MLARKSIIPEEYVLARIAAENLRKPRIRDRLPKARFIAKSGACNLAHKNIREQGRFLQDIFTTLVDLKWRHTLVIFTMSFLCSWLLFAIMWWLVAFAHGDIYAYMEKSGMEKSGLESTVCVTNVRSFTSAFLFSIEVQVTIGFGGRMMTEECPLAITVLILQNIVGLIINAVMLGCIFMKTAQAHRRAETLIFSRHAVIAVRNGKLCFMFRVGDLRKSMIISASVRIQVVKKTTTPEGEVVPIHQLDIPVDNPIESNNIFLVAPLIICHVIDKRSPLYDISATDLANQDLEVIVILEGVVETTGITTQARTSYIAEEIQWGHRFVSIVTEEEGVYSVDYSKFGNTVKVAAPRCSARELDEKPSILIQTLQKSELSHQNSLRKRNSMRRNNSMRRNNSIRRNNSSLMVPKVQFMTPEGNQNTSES
Procedure: as §1, §2, §3

Kir6.2/SUR1 [3] = biological target: T1, Kir6.2/SUR1; design: method as in PMID 38302135; conditions: previously reported; cited from earlier work
Kir6.1/SUR2B [4] = biological target: T2, Kir6.1/SUR2B; design: method as in PMID 38302135; conditions: previously reported; cited from earlier work
Kir6.1/SUR2B [5] = biological target: T2, Kir6.1/SUR2B; assay: Quantitative thallium flux assay, inhibition, stably transfected T-REx-HEK293 cells; format: cell-based
Kir6.2/SUR1 [6] = biological target: T1, Kir6.2/SUR1; assay: as above; format: cell-based
Procedure: Briefly, T-Rex-HEK293 cells underwent co-transfection with pcDNA5/TO-Kir6.1 or pcDNA5/TO-Kir6.2 (inducible expression) and pcDNA3.1-SUR2B or pcDNA3.1-SUR1 (constitutive expression) using Lipofectamine LTX following the manufacturer’s instructions and were then subjected to selection with antibiotics. Monoclonal cell lines were established through limiting dilution and characterization in thallium flux assays described below. […] KATP channel selectivity assays were performed in HEK293 cells transiently transfected with the indicated subunit using Lipofectamine LTX. The cells were incubated for 48 h after transfection before performing thallium flux assays.
as §1, with “The cell plate was subsequently placed in a Panoptic Kinetic Imaging Plate Reader (Wavefront Bioscience, Franklin, TN) and imaged at a frequency of 1 Hz using 482/35 nm (excitation) and 536/40 nm (emission) filter sets. Kir6.1/SUR2B channels were activated with 10 µM pinacidil, whereas Kir6.1/SUR1 was activated with 30 µM VU0071063 [34].” left out
The kinetic fluorescence measurements (F) from each well were normalized to the initial reading (F0), producing static ratios (F/F0) that adjust for variations in cell count and dye uptake. […] The response (maxmin2) was determined by subtracting the min value from the max value. Percent inhibition was calculated by normalizing each well’s response to the positive and negative controls. Concentration–response curves were fitted using a single-site, four-parameter logistic function in Prism version 4.0 (GraphPad Software Inc., San Diego, CA) to calculate the half-maximal inhibitory concentration (IC50). Statistical comparisons of IC50 values were performed using an extra sum-of-squares F test and the Mann–Whitney test. A p-value of less than 0.05 was considered statistically significant.

[7] = tested on: isolated mouse ductus arteriosus vessels; design: method as in PMID 38302135; conditions: compared with glibenclamide; cited from earlier work
Kir4.1 = biological target: T3, Kir4.1 (Homo sapiens, UniProt P78508); design: method as in PMID 29895592; conditions: cited from earlier work
T3 construct: expressed in transfected cells
T3 sequence (P78508 1-379): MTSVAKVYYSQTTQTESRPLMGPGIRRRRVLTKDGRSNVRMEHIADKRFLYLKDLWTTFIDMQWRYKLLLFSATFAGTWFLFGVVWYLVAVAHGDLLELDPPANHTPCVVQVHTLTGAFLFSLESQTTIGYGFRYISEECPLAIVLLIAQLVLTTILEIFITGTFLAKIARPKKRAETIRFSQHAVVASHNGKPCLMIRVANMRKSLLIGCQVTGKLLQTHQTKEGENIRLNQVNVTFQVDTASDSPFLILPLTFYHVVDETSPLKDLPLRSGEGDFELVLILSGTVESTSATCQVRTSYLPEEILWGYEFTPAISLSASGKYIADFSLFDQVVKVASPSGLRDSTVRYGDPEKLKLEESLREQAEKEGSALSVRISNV

Kir3.1/3.4 = biological target: T4, Kir3.1/3.4 (Homo sapiens, UniProt P48544+P48549); design: method as in PMID 29895592; conditions: cited from earlier work
T4 construct: expressed in transfected cells
T4 sequence (P48549 1-501): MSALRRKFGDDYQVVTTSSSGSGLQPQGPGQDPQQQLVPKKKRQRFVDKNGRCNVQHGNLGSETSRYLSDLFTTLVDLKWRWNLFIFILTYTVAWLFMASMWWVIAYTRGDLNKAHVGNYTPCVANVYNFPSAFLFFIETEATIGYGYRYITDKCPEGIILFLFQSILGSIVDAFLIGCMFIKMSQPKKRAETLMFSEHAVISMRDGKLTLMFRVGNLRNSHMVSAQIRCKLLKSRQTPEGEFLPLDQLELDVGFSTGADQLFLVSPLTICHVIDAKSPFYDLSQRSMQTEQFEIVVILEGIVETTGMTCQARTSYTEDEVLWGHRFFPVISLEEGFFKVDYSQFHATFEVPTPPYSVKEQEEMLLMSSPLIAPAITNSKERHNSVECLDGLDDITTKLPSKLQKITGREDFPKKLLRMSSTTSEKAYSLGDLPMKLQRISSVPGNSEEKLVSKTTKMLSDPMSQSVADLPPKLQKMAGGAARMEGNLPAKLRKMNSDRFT
T4 sequence (P48544 1-419): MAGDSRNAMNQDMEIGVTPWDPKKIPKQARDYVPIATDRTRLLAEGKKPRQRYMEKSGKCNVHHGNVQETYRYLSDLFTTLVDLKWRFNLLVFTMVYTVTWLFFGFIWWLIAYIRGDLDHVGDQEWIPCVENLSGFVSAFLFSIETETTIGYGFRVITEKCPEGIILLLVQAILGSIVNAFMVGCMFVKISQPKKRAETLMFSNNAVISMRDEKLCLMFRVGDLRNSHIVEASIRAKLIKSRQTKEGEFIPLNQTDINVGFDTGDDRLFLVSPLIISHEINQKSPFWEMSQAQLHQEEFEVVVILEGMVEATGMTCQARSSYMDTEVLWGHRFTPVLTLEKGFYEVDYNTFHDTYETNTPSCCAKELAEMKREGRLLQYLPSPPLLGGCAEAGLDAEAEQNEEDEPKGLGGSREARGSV

Kir4.2 = biological target: T5, Kir4.2 (Homo sapiens, UniProt Q99712); design: method as in PMID 29895592; conditions: cited from earlier work
T5 construct: expressed in transfected cells
T5 sequence (Q99712 1-375): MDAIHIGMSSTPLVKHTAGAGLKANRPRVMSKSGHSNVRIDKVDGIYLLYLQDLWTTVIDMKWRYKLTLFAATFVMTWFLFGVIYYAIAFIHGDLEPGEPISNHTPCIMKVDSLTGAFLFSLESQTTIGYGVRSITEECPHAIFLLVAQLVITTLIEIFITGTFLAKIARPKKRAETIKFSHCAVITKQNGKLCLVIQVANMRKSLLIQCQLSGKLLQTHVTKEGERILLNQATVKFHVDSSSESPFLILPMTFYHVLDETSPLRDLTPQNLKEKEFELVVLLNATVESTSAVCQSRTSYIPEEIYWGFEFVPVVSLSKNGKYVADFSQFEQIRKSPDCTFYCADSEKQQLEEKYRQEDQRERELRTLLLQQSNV

Kir3.1/3.2 = biological target: T6, Kir3.1/3.2 (Homo sapiens, UniProt P48051+P48549); design: method as in PMID 29895592; conditions: cited from earlier work
T6 construct: expressed in transfected cells
T6 sequence (P48549 1-501): T4 sequence (P48549 1-501)
T6 sequence (P48051 1-423): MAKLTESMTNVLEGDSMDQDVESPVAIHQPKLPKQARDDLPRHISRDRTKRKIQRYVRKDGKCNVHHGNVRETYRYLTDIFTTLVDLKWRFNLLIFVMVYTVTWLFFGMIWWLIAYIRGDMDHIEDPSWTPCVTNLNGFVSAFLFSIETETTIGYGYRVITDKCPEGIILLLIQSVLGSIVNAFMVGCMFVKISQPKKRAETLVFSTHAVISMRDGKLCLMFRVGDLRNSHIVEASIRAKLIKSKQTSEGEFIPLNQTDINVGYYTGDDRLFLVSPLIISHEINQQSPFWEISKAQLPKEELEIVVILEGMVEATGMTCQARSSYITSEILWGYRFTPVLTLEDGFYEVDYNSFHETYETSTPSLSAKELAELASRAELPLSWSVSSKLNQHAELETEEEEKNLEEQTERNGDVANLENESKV

[8] = ATP depletion with sodium cyanide and 2-deoxy-glucose, read-out: IC50 Kir6.1/SUR2B, ATP depletion
[9] = channels activated with 10 µM pinacidil, read-out: IC50 Kir6.1/SUR2B, pinacidil activation
[10] = thallium flux, ATP depletion with sodium cyanide and 2-deoxy-glucose

| Structure (SMILES) | Activation of Kir6.2/SUR1 (Kir6.2/SUR1 [1]) | Activation of Kir6.1/SUR2B (Kir6.1/SUR2B [2]) | Activity toward Kir6.2/SUR1 (Kir6.2/SUR1 [3]) | IC50 (Kir6.1/SUR2B [4]) | IC50 (Kir6.1/SUR2B [5]; [8]) | IC50 (Kir6.1/SUR2B [5]; [9]) | Effect on Kir6.2/SUR1 channel activity (Kir6.2/SUR1 [6]; VU0071063 activation or ATP depletion, full range of doses tested (up to 30 µM)) | IC50 (Kir6.2/SUR1 [6]; [10]) | IC50 Kir6.2/SUR1, ATP depletion (Kir6.2/SUR1 [6]; [10]) | IC50 Kir6.2/SUR1, VU0071063 activation (Kir6.2/SUR1 [6]; thallium flux, in the presence of 10 uM VU0071063) | Potency for contraction of ductus arteriosus vessels [7] | Efficacy of inhibition of Kir4.1 (Kir4.1; at 30 µM) | IC50 (Kir4.1) | Efficacy of inhibition of Kir3.1/3.4 (Kir3.1/3.4; at 30 µM) | IC50 (Kir3.1/3.4) | IC50 (Kir4.2) | Efficacy of inhibition of Kir3.1/3.2 (Kir3.1/3.2; at 30 µM) | IC50 (Kir3.1/3.2) |
| --- | --- | --- | --- | --- | --- | --- | --- | --- | --- | --- | --- | --- | --- | --- | --- | --- | --- | --- |
| Cc1nc(-c2cccs2)sc1CNC(=O)Nc1cccs1 [VU0542270, reference compound] | failed to activate; also recorded: did not | failed to activate | no apparent activity | ~100 nM | 31 nM and 30 nM | 100 nM | no effect | > 30 µM | no fit | no fit | same potency as glibenclamide | – | – | – | – | – | – | – |
| COc1ccc(Cl)cc1C(=O)NCCc1ccc(S(=O)(=O)NC(=O)NC2CCCCC2)cc1 [Glibenclamide, glibenclamide, reference compound] | – | failed to activate | – | – | 51 nM and 50 nM | 33 nM and 30 nM | – | – | – | – | – | – | – | – | – | – | – | – |
| CC(C)c1ccc(OCC(=O)NC2CC(C)(C)NC(C)(C)C2)c(Br)c1 [VU0134992] | – | – | – | – | – | – | – | – | – | – | – | greater than 90% | 5.2 µM | greater than 90% | 3.1 µM | 8.2 µM | greater than 90% | 2500 nM |
